Laboratory results taken from the NIST ThermoML archive (doi:10.1016/j.tca.2012.10.024).
± gives the expanded uncertainty stated by the source.

How the values were obtained:
[1] = refractive index (Na D-line) (dimensionless); xn = mol fraction of the nth substance listed; conditions: 101 kPa, Liquid, Standard Abbe refractometry
[2] = relative permittivity at zero frequency (dimensionless); xn = mol fraction of the nth substance listed; conditions: 101 kPa, Liquid, Parallel plate capacitor

COCCOCCOCCOCCOC [2,5,8,11,14-pentaoxapentadecane] + CCCCCCCC
Conditions	refractive index, 293.15 K	refractive index, 298.15 K	refractive index, 303.15 K	relative permittivity at zero frequency, 293.15 K	relative permittivity at zero frequency, 298.15 K	relative permittivity at zero frequency, 303.15 K
[1], x1 = 0.0503	1.3993 ± 0.0007	1.3969 ± 0.0007	1.3946 ± 0.0007	–	–	–
[1], x1 = 0.1003	1.4011 ± 0.0007	1.3987 ± 0.0007	1.3965 ± 0.0007	–	–	–
[1], x1 = 0.1515	1.4031 ± 0.0007	1.4007 ± 0.0007	1.3985 ± 0.0007	–	–	–
[1], x1 = 0.2061	1.4052 ± 0.0007	1.4028 ± 0.0007	1.4006 ± 0.0007	–	–	–
[1], x1 = 0.245	1.4067 ± 0.0007	1.4043 ± 0.0007	1.4021 ± 0.0007	–	–	–
[1], x1 = 0.305	1.4091 ± 0.0007	1.4067 ± 0.0007	1.4045 ± 0.0007	–	–	–
[1], x1 = 0.3569	1.4111 ± 0.0007	1.4087 ± 0.0007	1.4065 ± 0.0007	–	–	–
[1], x1 = 0.4054	1.4127 ± 0.0007	1.4106 ± 0.0007	1.4084 ± 0.0007	–	–	–
[1], x1 = 0.4487	1.4144 ± 0.0007	1.4122 ± 0.0007	1.41 ± 0.0007	–	–	–
[1], x1 = 0.5043	1.4163 ± 0.0007	1.4142 ± 0.0007	1.4121 ± 0.0007	–	–	–
[1], x1 = 0.5537	1.4182 ± 0.0007	1.4159 ± 0.0007	1.4138 ± 0.0007	–	–	–
[1], x1 = 0.5963	1.4195 ± 0.0007	1.4173 ± 0.0007	1.4151 ± 0.0007	–	–	–
[1], x1 = 0.6473	1.4213 ± 0.0007	1.4191 ± 0.0007	1.417 ± 0.0007	–	–	–
[1], x1 = 0.693	1.4228 ± 0.0007	1.4208 ± 0.0007	1.4186 ± 0.0007	–	–	–
[1], x1 = 0.7515	1.4248 ± 0.0008	1.4227 ± 0.0008	1.4207 ± 0.0008	–	–	–
[1], x1 = 0.8067	1.4268 ± 0.0008	1.4248 ± 0.0008	1.423 ± 0.0008	–	–	–
[1], x1 = 0.8475	1.4281 ± 0.0008	1.426 ± 0.0008	1.4239 ± 0.0008	–	–	–
[1], x1 = 0.8941	1.4295 ± 0.0008	1.4275 ± 0.0008	1.4256 ± 0.0008	–	–	–
[1], x1 = 0.947	1.431 ± 0.0008	1.429 ± 0.0008	1.4271 ± 0.0008	–	–	–
[2], x1 = 0.033	–	–	–	2.107 ± 0.13	2.098 ± 0.13	2.088 ± 0.12
[2], x1 = 0.0659	–	–	–	2.254 ± 0.14	2.242 ± 0.14	2.23 ± 0.13
[2], x1 = 0.0998	–	–	–	2.413 ± 0.14	2.398 ± 0.14	2.382 ± 0.14
[2], x1 = 0.133	–	–	–	2.577 ± 0.15	2.558 ± 0.15	2.538 ± 0.15
[2], x1 = 0.1645	–	–	–	2.736 ± 0.16	2.715 ± 0.16	2.693 ± 0.16
[2], x1 = 0.2003	–	–	–	2.922 ± 0.17	2.896 ± 0.17	2.87 ± 0.17
[2], x1 = 0.2488	–	–	–	3.19 ± 0.19	3.158 ± 0.19	3.126 ± 0.19
[2], x1 = 0.3002	–	–	–	3.476 ± 0.21	3.438 ± 0.21	3.4 ± 0.2
[2], x1 = 0.3486	–	–	–	3.762 ± 0.23	3.718 ± 0.22	3.675 ± 0.22
[2], x1 = 0.3951	–	–	–	4.03 ± 0.24	3.981 ± 0.24	3.931 ± 0.24
[2], x1 = 0.4461	–	–	–	4.347 ± 0.26	4.291 ± 0.26	4.234 ± 0.25
[2], x1 = 0.5092	–	–	–	4.738 ± 0.28	4.674 ± 0.28	4.61 ± 0.28
[2], x1 = 0.5516	–	–	–	5.005 ± 0.3	4.937 ± 0.3	4.867 ± 0.29
[2], x1 = 0.6003	–	–	–	5.313 ± 0.32	5.238 ± 0.31	5.163 ± 0.31
[2], x1 = 0.6409	–	–	–	5.578 ± 0.34	5.499 ± 0.33	5.42 ± 0.33
[2], x1 = 0.693	–	–	–	5.909 ± 0.35	5.823 ± 0.35	5.736 ± 0.34
[2], x1 = 0.7072	–	–	–	6.004 ± 0.36	5.916 ± 0.35	5.827 ± 0.35
[2], x1 = 0.7515	–	–	–	6.298 ± 0.38	6.205 ± 0.37	6.111 ± 0.37
[2], x1 = 0.8002	–	–	–	6.622 ± 0.4	6.523 ± 0.39	6.421 ± 0.39
[2], x1 = 0.8461	–	–	–	6.943 ± 0.42	6.838 ± 0.41	6.732 ± 0.4
[2], x1 = 0.8985	–	–	–	7.279 ± 0.44	7.168 ± 0.43	7.057 ± 0.42
[2], x1 = 0.9441	–	–	–	7.585 ± 0.46	7.469 ± 0.45	7.351 ± 0.44

COCCOCCOCCOCCOC [2,5,8,11,14-pentaoxapentadecane] + CCCCCO
Conditions	refractive index, 293.15 K	refractive index, 298.15 K	refractive index, 303.15 K	relative permittivity at zero frequency, 293.15 K	relative permittivity at zero frequency, 298.15 K	relative permittivity at zero frequency, 303.15 K
[1], x2 = 0.0505	1.4319 ± 0.0019	1.4302 ± 0.0009	1.4279 ± 0.0012	–	–	–
[1], x2 = 0.1002	1.4315 ± 0.0009	1.4294 ± 0.0009	1.4273 ± 0.0009	–	–	–
[1], x2 = 0.1509	1.4305 ± 0.0009	1.4286 ± 0.0009	1.4265 ± 0.0009	–	–	–
[1], x2 = 0.1919	1.4301 ± 0.0008	1.4281 ± 0.0009	1.4259 ± 0.0009	–	–	–
[1], x2 = 0.2458	1.4291 ± 0.0009	1.4272 ± 0.0009	1.4251 ± 0.0009	–	–	–
[1], x2 = 0.291	1.4285 ± 0.0008	1.4265 ± 0.0009	1.4244 ± 0.0009	–	–	–
[1], x2 = 0.3384	1.4276 ± 0.0008	1.4256 ± 0.0008	1.4236 ± 0.0008	–	–	–
[1], x2 = 0.3986	1.4265 ± 0.0008	1.4246 ± 0.0008	1.4225 ± 0.0008	–	–	–
[1], x2 = 0.4554	1.4256 ± 0.0008	1.4235 ± 0.0008	1.4215 ± 0.0008	–	–	–
[1], x2 = 0.493	1.4248 ± 0.0008	1.4229 ± 0.0008	1.4207 ± 0.0009	–	–	–
[1], x2 = 0.5496	1.4236 ± 0.0008	1.4217 ± 0.0008	1.4196 ± 0.0008	–	–	–
[1], x2 = 0.5931	1.4227 ± 0.0008	1.4207 ± 0.0008	1.4186 ± 0.0008	–	–	–
[1], x2 = 0.6455	1.4214 ± 0.0008	1.4194 ± 0.0008	1.4174 ± 0.0008	–	–	–
[1], x2 = 0.6979	1.42 ± 0.0008	1.4181 ± 0.0008	1.416 ± 0.0008	–	–	–
[1], x2 = 0.7424	1.4188 ± 0.0008	1.4168 ± 0.0008	1.4148 ± 0.0008	–	–	–
[1], x2 = 0.7959	1.4172 ± 0.0008	1.4153 ± 0.0008	1.4133 ± 0.0008	–	–	–
[1], x2 = 0.8372	1.4159 ± 0.0008	1.4141 ± 0.0008	1.4121 ± 0.0008	–	–	–
[1], x2 = 0.8679	1.4149 ± 0.0008	1.4131 ± 0.0008	1.4111 ± 0.0008	–	–	–
[1], x2 = 0.8987	1.4139 ± 0.0008	1.4121 ± 0.0008	1.41 ± 0.0008	–	–	–
[1], x2 = 0.9225	1.413 ± 0.0008	1.4112 ± 0.0008	1.4092 ± 0.0008	–	–	–
[1], x2 = 0.9488	1.412 ± 0.0008	1.4102 ± 0.0008	1.4081 ± 0.0008	–	–	–
[1], x2 = 0.9793	1.4109 ± 0.0008	1.409 ± 0.0008	1.407 ± 0.0008	–	–	–
[2], x2 = 0.0505	–	–	–	7.99 ± 0.48	7.863 ± 0.47	7.737 ± 0.46
[2], x2 = 0.1002	–	–	–	7.97 ± 0.48	7.843 ± 0.47	7.715 ± 0.46
[2], x2 = 0.1509	–	–	–	8.043 ± 0.48	7.911 ± 0.47	7.779 ± 0.47
[2], x2 = 0.1919	–	–	–	8.041 ± 0.48	7.906 ± 0.47	7.771 ± 0.47
[2], x2 = 0.2458	–	–	–	8.132 ± 0.49	7.993 ± 0.48	7.854 ± 0.47
[2], x2 = 0.291	–	–	–	8.15 ± 0.49	8.009 ± 0.48	7.866 ± 0.47
[2], x2 = 0.3384	–	–	–	8.271 ± 0.5	8.119 ± 0.49	7.968 ± 0.48
[2], x2 = 0.3986	–	–	–	8.344 ± 0.5	8.186 ± 0.49	8.029 ± 0.48
[2], x2 = 0.4554	–	–	–	8.523 ± 0.51	8.35 ± 0.5	8.18 ± 0.49
[2], x2 = 0.493	–	–	–	8.615 ± 0.52	8.438 ± 0.51	8.26 ± 0.5
[2], x2 = 0.5496	–	–	–	8.857 ± 0.53	8.662 ± 0.52	8.469 ± 0.51
[2], x2 = 0.5931	–	–	–	9.027 ± 0.54	8.819 ± 0.53	8.615 ± 0.52
[2], x2 = 0.6455	–	–	–	9.353 ± 0.56	9.122 ± 0.55	8.896 ± 0.53
[2], x2 = 0.6979	–	–	–	9.71 ± 0.58	9.454 ± 0.57	9.203 ± 0.55
[2], x2 = 0.7424	–	–	–	10.138 ± 0.61	9.853 ± 0.59	9.577 ± 0.57
[2], x2 = 0.7959	–	–	–	10.73 ± 0.64	10.413 ± 0.62	10.103 ± 0.61
[2], x2 = 0.8372	–	–	–	11.351 ± 0.68	10.992 ± 0.66	10.643 ± 0.64
[2], x2 = 0.8679	–	–	–	11.894 ± 0.71	11.506 ± 0.69	11.123 ± 0.67
[2], x2 = 0.8987	–	–	–	12.519 ± 0.75	12.102 ± 0.73	11.691 ± 0.7
[2], x2 = 0.9225	–	–	–	13.119 ± 0.79	12.665 ± 0.76	12.217 ± 0.73
[2], x2 = 0.9488	–	–	–	13.878 ± 0.83	13.383 ± 0.8	12.896 ± 0.77
[2], x2 = 0.9793	–	–	–	14.929 ± 0.9	14.377 ± 0.86	13.834 ± 0.83
